The assay concerns lashes and adjacent hairs. Briefly: Observation of lashes and adjacent hairs in glaucoma patients treated in one eye. The format is in vivo. From the text: In the course of treating patients having glaucoma, treatment may only be appropriate in one eye. […] The lash appearance on the lids of the treated eyes would have appeared quite attractive if it represented a bilateral phenomenon. As a result of its asymmetric nature, the long lashes on one side could be construed as disturbing from a cosmetic standpoint. A systemic examination was preformed as a result of the asymmetric phenomenon. It soon became apparent that this altered appearance was not an isolated finding. […] Definite differences could be identified to varying degrees in the lashes and adjacent hairs of all patients who were taking the drug on a unilateral basis for longer than 6 months.
The changes in the lashes were apparent on gross inspection in several patients once attention was focused on the issue. In those with light colored hair and lashes, the differences were only seen easily with the aid of the high magnification and lighting capabilities of the slit lamp biomicroscope. In the course of glaucoma follow-up examination, attention is generally immediately focused on the eye itself. As a result of the high power magnification needed only one eye is seen at a time and the eye is seen at a high enough power that the lashes are not in focus. […]

The values below come from US8263593B2, “Therapeutic compounds” (Allergan, Inc., priority 2008, dated 2012).

As to `CCNC(=O)CCC/C=C\C[C@@H]1[C@@H](/C=C/[C@@H](O)CCc2ccccc2)[C@H](O)C[C@@H]1O` [bimatoprost], for the setting “glaucoma patient treated in one eye only”, the “lash appearance in the treated eye versus the non-treated eye” value was “longer, thicker, and fuller”. Further, under “many subjects, unilateral treatment”, the “hair growth in treated versus control areas, multiple parameters of hair appearance” value is recorded as “hair growth is stimulated”.
